# According to article PMC9964244, “Effects of Dimerization, Dendrimerization, and Chirality in p-BthTX-I Peptide Analogs on the Antibacterial Activity and Enzymatic Inhibition of the SARS-CoV-2 PL^pro Protein” (Pharmaceutics, 2023):
# Where “and” joins values, the source holds several entries; their conditions need not be identical. Equal entries are not always repeated. Bridge positions count the residues as written; N and C are the ends. Square brackets hold non-standard residues; d marks the D form. Ends that are not written are not given here. Peptide text beside a SMILES is read from it. I, II: the chains in the order shown.
# Tests used:
# E. faecalis ATCC 29212 = test: MIC/MBC, broth microdilution and subculture on CA-MH agar; format: cell-based; set-up: key to Act (antibacterial activity): Bc, bactericidal; Bs, bacteriostatic; settings: for MIC: broth microdilution; for MIC / MBC: triplicate, mode; for MBC: subculture on CA-MH agar, 37 °C, 24 h
# Description: (§1) Bacterial isolates from the American Type Culture Collection (ATCC) were obtained from the Collection of Reference Bacteria on Health Surveillance, Oswaldo Cruz Foundation (FIOCRUZ) after phenotypic and molecular quality control and were registered at SISGEN under the number ADB556B. The minimum inhibitory concentration (MIC) was determined as previously described by Santos-Filho et al., 2021 [17], using the broth microdilution method. The MIC was the lowest concentration that inhibited microbial growth. […] MBC was defined as the lowest peptide concentration with no visible growth on the plate. […] The assay was performed in triplicate, and the values represent the mode of the obtained results.
# (§2) Thus, to assess the relevance of the antimicrobial effect of p-Bth analogs, their Minimum Inhibitory Concentration (MIC) and Minimum Bactericidal Concentration (MBC) were analyzed against relevant bacteria. The evaluated strains were the Gram-positives: S. aureus ATCC 25923, S. epidermidis ATCC 35984, E. faecalis ATCC 29212, and E. faecium ATCC […] (Table 1); and the Gram-negatives: K. pneumoniae ATCC 700603, E. coli ATCC 25922, A. baumannii ATCC 19606, and P. aeruginosa ATCC 27853 (Table 2).
# [1] = tested on: S. epidermidis ATCC 35984; test: as above; format: cell-based; set-up: key to Act (antibacterial activity): Bc, bactericidal; Bs, bacteriostatic; settings: for MIC: broth microdilution; for MIC / MBC: triplicate, mode; for MBC: subculture on CA-MH agar, 37 °C, 24 h
# Description: as §1, §2
# E. coli ATCC 25922 = test: as above; format: cell-based; set-up: key to Act (antibacterial activity): Bc, bactericidal; Bs, bacteriostatic; settings: for MIC: broth microdilution; for MIC / MBC: triplicate, mode; for MBC: subculture on CA-MH agar, 37 °C, 24 h
# Description: as §1, §2
# A. baumannii ATCC 19606 = test: as above; format: cell-based, Acinetobacter baumannii; set-up: key to Act (antibacterial activity): Bc, bactericidal; Bs, bacteriostatic; settings: for MIC: broth microdilution; for MIC / MBC: triplicate, mode; for MBC: subculture on CA-MH agar, 37 °C, 24 h
# Description: as §1, §2
# S. aureus ATCC 25923 = test: as above; format: cell-based, Staphylococcus aureus; settings: triplicate, mode; for MIC: broth microdilution; for MBC: subculture on CA-MH agar, 37 °C, 24 h
# Description: as §1, §2
# P. aeruginosa ATCC 27853 = test: as above; format: cell-based, Pseudomonas aeruginosa; set-up: key to Act (antibacterial activity): Bc, bactericidal; Bs, bacteriostatic; settings: for MIC: broth microdilution; for MIC / MBC: triplicate, mode; for MBC: subculture on CA-MH agar, 37 °C, 24 h
# Description: as §1, §2
# SARS-CoV-2 = settings: Vero cells; cited from earlier work
# Excerpt: In December 2019, the first case of viral infection with a new coronavirus was reported in China, which was later named severe acute respiratory syndrome coronavirus 2 (SARS-CoV-2), and the disease caused by this was named coronavirus-2019 or COVID-19 by the WHO. This disease has taken on great proportions, causing a pandemic scenario and great global concern. Even with the improvements in disease control, there is still a need for new, specific antiviral therapeutic options. As antimicrobial peptides also have antiviral action, the L-dimer, D-dimer and L-tetramer, in addition to ...
# E. faecium ATCC 700221 = test: MIC/MBC, broth microdilution and subculture on CA-MH agar; format: cell-based, Enterococcus faecium; set-up: key to Act (antibacterial activity): Bc, bactericidal; Bs, bacteriostatic; settings: for MIC: broth microdilution; for MIC / MBC: triplicate, mode; for MBC: subculture on CA-MH agar, 37 °C, 24 h
# Description: as §1, §2
# [2] = Carboxyfluorescein leakage, vesicle permeabilization; settings: 95% POPC / 5% POPG vesicles
# Description: The permeabilization of lipid vesicles containing carboxyfluorescein was carried out using a spectrofluorometer model Fluorolog-3 FL3-122 from Horiba Jobin Yvon (Newark, NJ, USA) (dimers and tetramers) or in a spectrofluorometer model RF-1501 Shimadzu (Kyoto, Japan) (monomer). For RF-1501, the quantification of the fluorescence intensity was performed every 20 s. Two vesicle compositions were used: (1) 80% 1-palmitoyl-2-oleoyl-sn-glycero-3-phosphoethanolamine (POPE) and 20% 1-palmitoyl-2-oleoyl-sn-glycero- 3-phospho-(10-rac-glycerol) (POPG); and (2) 95% 1-palmitoyl-2-oleoyl-sn-glycero-3-phosphocholine (POPC) and 5% POPG. The percentage of leakage was obtained through the following equation:% release = (Fmeasured − Finitial)/(Ffinal − Finitial) × 100, where Ffinal is the average fluorescence value obtained after the addition of Triton, Finitial is the average of the initial values of the run before the addition of the peptide, and Fmeasured are the fluorescence values obtained at each point of the experiment.
# Here, we evaluated two systems of membrane mimetics, including vesicles with a composition of 80% POPE and 20% POPG, and another with 95% POPC and 5% POPG. The first is widely used as a model of bacterial membranes, specifically of E. coli membrane. Membranes constituting POPC and POPG were used to mimic mammalian membranes due to the presence of choline-containing lipids in animal membranes.
# SARS-CoV-2 PL^pro [3] = molecular target: T1, SARS-CoV-2 PL^pro (Severe acute respiratory syndrome coronavirus 2, UniProt P0DTD1); settings: PL^pro from SARS-CoV-2; peptide 10 µM; ref 19 (Freire et al., 2021); cited from earlier work
# T1 construct: made in house
# Description: Table 3 PL^pro activity by peptide analogs of p-BThTX-I at the concentration of 10 μM and IC50 values. Representative concentration–response inhibition curves against PL^pro from SARS-CoV-2 are presented in the Supplementary Material (Figure S7). | column: Inhibition (%) at 10 µM; IC50 μM
# [4] = tested on: K. pneumoniae ATCC 700603; test: MIC/MBC, broth microdilution and subculture on CA-MH agar; format: cell-based, Klebsiella pneumoniae; set-up: key to Act (antibacterial activity): Bc, bactericidal; Bs, bacteriostatic; settings: for MIC: broth microdilution; for MIC / MBC: triplicate, mode; for MBC: subculture on CA-MH agar, 37 °C, 24 h
# Description: as §1, §2
# SARS-CoV-2 PL^pro [5] = molecular target: T1, SARS-CoV-2 PL^pro; test: PL^pro enzymatic inhibition assay; format: biochemical; settings: PL^pro from SARS-CoV-2
# erythrocytes = test: Hemolysis assay; format: cell-based; settings: at 512 µg/mL, 1 h, 37 °C, Triton X-100 1% positive control, duplicate
# Description: Peptide hemolytic activity was determined as previously described^15. Peptides were incubated with erythrocytes in the range from 512 μg/mL to 0.06 μg/mL for 1 h at 37 °C. Triton X-100 1% was used as a positive control for hemolysis. Assays were performed in duplicate. The Research Ethics Committee approved this project under the number 90291518.4.0000.5426.
# [6] = MBC/MIC ratio >4 suggests bacteriostatic
Molecule,MIC (E. faecalis ATCC 29212),MBC (E. faecalis ATCC 29212) [µg/mL],MIC [1],MBC [1] [µg/mL],MIC (E. coli ATCC 25922),MBC (E. coli ATCC 25922) [µg/mL],MIC (A. baumannii ATCC 19606) [µM],MBC (A. baumannii ATCC 19606) [µg/mL],MIC (S. aureus ATCC 25923),MBC (S. aureus ATCC 25923) [µg/mL],MIC (P. aeruginosa ATCC 27853),MBC (P. aeruginosa ATCC 27853) [µg/mL],MIC (E. faecium ATCC 700221),MBC (E. faecium ATCC 700221) [µg/mL],MIC [4],MBC [4] [µg/mL],also measured
CC(C)C[C@@H](NC(=O)[C@@H](Cc1c[nH]cn1)NC(=O)[C@@H](Cc1ccc(O)cc1)NC(=O)[C@@H](CCCNC(=N)N)NC(=O)[C@@H](Cc1ccc(O)cc1)NC(=O)[C@@H](CCCCN)NC(=O)[C@H](N)CCCCN)C(=O)N[C@H](CCCCN)C(=O)N1CCC[C@@H]1C(=O)N[C@H](Cc1ccccc1)C(=O)NCCCC[C@H](NC(=O)[C@@H](Cc1ccccc1)NC(=O)[C@H]1CCCN1C(=O)[C@@H](CCCCN)NC(=O)[C@@H](CC(C)C)NC(=O)[C@@H](Cc1c[nH]cn1)NC(=O)[C@@H](Cc1ccc(O)cc1)NC(=O)[C@@H](CCCNC(=N)N)NC(=O)[C@@H](Cc1ccc(O)cc1)NC(=O)[C@@H](CCCCN)NC(=O)[C@H](N)CCCCN)C(N)=O [D-dimer] (I: H-[dK][dK][dY][dR][dY][dH][dL][dK][dP][dF]K-NH2 / II: H-[dK][dK][dY][dR][dY][dH][dL][dK][dP][dF]; amide I:11-II:C; N-terminus assumed),178 µM and 512 μg/mL,512,16 µg/mL,16,32 μg/mL and 11 µM,32,5,64,256 μg/mL and 89 µM,>512,256 μg/mL and 89 µM,512,64 μg/mL and 22 µM,>256,64 μg/mL and 22 µM,128,"Act (antibacterial activity) (E. faecalis ATCC 29212; [6]): Bc; Act (antibacterial activity) [1, 6]: Bc; Act (antibacterial activity) (E. coli ATCC 25922; [6]): Bc; Act (antibacterial activity) (A. baumannii ATCC 19606; [6]): Bc; Act (antibacterial activity) (P. aeruginosa ATCC 27853; [6]): Bc; percentage inhibition of SARS-CoV-2 infection (SARS-CoV-2): 69%; Act (antibacterial activity) (E. faecium ATCC 700221; [6]): Bs; fluorescein leakage ([2]; concentration not stated in the sentence (10 and 50 µM tested)): 20%; CF leakage ([2]; peptide 50 µM): 20%; Inhibition (%) at 10 µM (SARS-CoV-2 PL^pro [3]): 96.35 ± 0.91%; Act (antibacterial activity) [4, 6]: Bc"
"I: [dK][dK][dY][dR][dY][dH][dL][dK][dP][dF]KK-NH2 / II: [dK][dK][dY][dR][dY][dH][dL][dK][dP][dF]K / III: [dK][dK][dY][dR][dY][dH][dL][dK][dP][dF] / IV: [dK][dK][dY][dR][dY][dH][dL][dK][dP][dF] (amide I:11-IV:C, I:12-II:C, II:11-III:C) [D-tetramer]",5 µM,32,2 µM,16,5 µM,>128,5,32,10 µM,64,5 µM,64,2 µM,16,5 µM,32,inhibition at 10 µM (SARS-CoV-2 PL^pro [5]; peptide 10 µM): 94 ± 3%; IC50 (SARS-CoV-2 PL^pro [5]; two independent experiments): 2.7 ± 0.5 µM; hemolysis (erythrocytes): 28%
